Source: the supplement of paper PMC8149375

Key:
Settings in all cases: treatment: drug alone; 5 days
SN12C [1] = assay: minimum viability across doses, drug alone, relative to DMSO (fraction); higher = less growth inhibition
Experimental: (§1)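 Primary HTS: 8 RCC cell lines treated with 8 doses (up to 10 uM) of each library drug alone for 5 days; viability read by CellTiter-Glo and normalised to DMSO. GI50 was fitted with XLfit (4-parameter), AUC is the area under the dose-response curve, and minimum viability is the lowest fraction of DMSO viability across doses.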

786-O [2] = assay: as above
Experimental: as §1

769-P [3] = assay: as above
Experimental: as §1

CAKI-1 [4] = assay: as above
Experimental: as §1

UO-31 [5] = assay: as above
Experimental: as §1

A498 [6] = assay: as above
Experimental: as §1

TK-10 [7] = assay: as above
Experimental: as §1

ACHN [8] = assay: as above
Experimental: as §1

SN12C [9] = assay: GI50, drug alone; higher = less potent
Experimental: as §1

786-O [10] = assay: GI50, drug alone; higher = less potent
Experimental: as §1

769-P [11] = assay: GI50, drug alone; higher = less potent
Experimental: as §1

CAKI-1 [12] = assay: GI50, drug alone; higher = less potent
Experimental: as §1

UO-31 [13] = assay: GI50, drug alone; higher = less potent
Experimental: as §1

A498 [14] = assay: GI50, drug alone; higher = less potent
Experimental: as §1

TK-10 [15] = assay: GI50, drug alone; higher = less potent
Experimental: as §1

ACHN [16] = assay: GI50, drug alone; higher = less potent
Experimental: as §1

SN12C [17] = assay: AUC of dose-response viability curve, drug alone (arbitrary (AUC of normalised viability)); higher = less growth inhibition
Experimental: as §1

786-O [18] = assay: as above
Experimental: as §1

769-P [19] = assay: as above
Experimental: as §1

CAKI-1 [20] = assay: as above
Experimental: as §1

UO-31 [21] = assay: as above
Experimental: as §1

A498 [22] = assay: as above
Experimental: as §1

TK-10 [23] = assay: as above
Experimental: as §1

ACHN [24] = assay: as above
Experimental: as §1

| Structure (SMILES) | minimum viability across doses (SN12C [1]) | minimum viability across doses (786-O [2]) | minimum viability across doses (769-P [3]) | minimum viability across doses (CAKI-1 [4]) | minimum viability across doses (UO-31 [5]) | minimum viability across doses (A498 [6]) | minimum viability across doses (TK-10 [7]) | minimum viability across doses (ACHN [8]) | GI50, drug alone (SN12C [9]) [µM] | GI50, drug alone (786-O [10]) [nM] | GI50, drug alone (769-P [11]) [µM] | GI50, drug alone (CAKI-1 [12]) [nM] | GI50, drug alone (UO-31 [13]) [µM] | GI50, drug alone (A498 [14]) [µM] | GI50, drug alone (TK-10 [15]) [µM] | GI50, drug alone (ACHN [16]) [nM] | AUC of dose-response viability curve (SN12C [17]) | AUC of dose-response viability curve (786-O [18]) | AUC of dose-response viability curve (769-P [19]) | AUC of dose-response viability curve (CAKI-1 [20]) | AUC of dose-response viability curve (UO-31 [21]) | AUC of dose-response viability curve (A498 [22]) | AUC of dose-response viability curve (TK-10 [23]) | AUC of dose-response viability curve (ACHN [24]) |
| --- | --- | --- | --- | --- | --- | --- | --- | --- | --- | --- | --- | --- | --- | --- | --- | --- | --- | --- | --- | --- | --- | --- | --- | --- |
| CS(=O)(=O)O.N#CC1(c2ccc(NC(=O)c3cccnc3NCc3ccncc3)cc2)CCCC1 [Apatinib (YN968D1)] | 0.799 | 0.648 | 0.901 | 0.666 | 0.126 | 1.02 | 0.739 | 0.676 | > 10 | > 10000 | > 10 | > 10000 | 8.33 | > 10 | > 10 | > 10000 | 3.39 | 3.23 | 3.53 | 2.93 | 5.2 | 4.78 | 2.84 | 3.21 |
| O=C1C(=O)N(Cc2ccc(Cl)c(Cl)c2)c2ccccc21 [Apoptosis Activator 2] | 0.193 | 0.00355 | 0.654 | 0.342 | 0.818 | 0.506 | 0.439 | 0.339 | 4.98 | > 10000 | > 10 | 7680 | > 10 | > 10 | 8.15 | 6950 | 2.93 | 1.07 | 3.51 | 3.53 | 4.31 | 4.06 | 2.82 | 2.87 |
| CCN1CCN(C(=O)Cc2ccc(Nc3ncc(F)c(Nc4ccc(C(=O)Nc5ccccc5Cl)cc4)n3)cc2)CC1 [Aurora A Inhibitor I] | 0.465 | 0.0582 | 0.0238 | 0.00638 | 0.327 | 0.871 | 0.481 | 0.062 | 5.34 | 234 | 2.03 | 980 | 9.23 | > 10 | 4.41 | 557 | 2.95 | 1.75 | 2.75 | 2.49 | 3.82 | 4.05 | 2.7 | 2.17 |
| CNC(=O)c1ccccc1Sc1ccc2c(/C=C/c3ccccn3)n[nH]c2c1 [Axitinib] | 0.375 | 0.661 | 0.436 | 0.367 | 0.672 | 0.779 | 0.748 | 0.287 | 5.6 | > 10000 | 6.97 | 2870 | > 10 | > 10 | > 10 | 4700 | 3.06 | 3.02 | 3.08 | 2.86 | 4.27 | 4.06 | 3.07 | 3.13 |
| Cn1c(=O)n(-c2ccc(C(C)(C)C#N)cc2)c2c3cc(-c4cnc5ccccc5c4)ccc3ncc21 [BEZ235 (NVP-BEZ235)] | 0.189 | 0.139 | 0.165 | 0.0875 | 0.00561 | 0.0718 | 0.157 | 0.0714 | 0.297 | 150 | 0.301 | 294 | 0.152 | 0.303 | 0.489 | 223 | 1.96 | 1.74 | 2.02 | 1.99 | 1.69 | 2.03 | 2.11 | 1.86 |
| CCN1CCN(c2ccc(Nc3cc(N(C)C(=O)Nc4c(Cl)c(OC)cc(OC)c4Cl)ncn3)cc2)CC1 [BGJ398 (NVP-BGJ398)] | 0.385 | 0.218 | 0.631 | 0.133 | 0.401 | 0.92 | 0.327 | 0.111 | 6.98 | 2250 | > 10 | 519 | 7.58 | > 10 | 3.23 | 747 | 2.91 | 2.7 | 3.22 | 2.1 | 2.98 | 3.84 | 2.68 | 2.28 |
| CC[C@@H]1C(=O)N(C)c2cnc(Nc3ccc(C(=O)N[C@H]4CC[C@H](N5CCN(CC6CC6)CC5)CC4)cc3OC)nc2N1C(C)C [BI6727 (Volasertib)] | 0.0643 | 0.00304 | 0.0308 | 0.0881 | 0.012 | 0.0429 | 0.0289 | 0.0122 | 0.123 | 12.3 | 0.126 | 157 | 0.0581 | 2.03 | 0.293 | 130 | 1.71 | 0.673 | 1.66 | 2.01 | 2.07 | 2.78 | 1.93 | 1.87 |
| CC[C@@H]1C(=O)N(C)c2cnc(Nc3ccc(C(=O)NC4CCN(C)CC4)cc3OC)nc2N1C1CCCC1 [BI 2536] | 0.0427 | 0.0067 | 0.049 | 0.121 | 0.0104 | 0.0641 | 0.0909 | 0.121 | 0.0549 | 10.1 | 0.12 | 93.6 | 0.0839 | 0.458 | 0.317 | 49.9 | 1.37 | 0.585 | 1.58 | 1.78 | 1.61 | 1.97 | 1.91 | 1.37 |
| COC(=O)c1ccc2c(c1)NC(=O)/C2=C(\Nc1ccc(N(C)C(=O)CN2CCN(C)CC2)cc1)c1ccccc1 [BIBF1120 (Vargatef)] | 0.393 | 0.782 | 0.917 | 0.251 | 0.439 | 0.892 | 0.61 | 0.255 | > 10 | > 10000 | > 10 | 2130 | 7.36 | > 10 | > 10 | 2070 | 2.58 | 3.94 | 3.42 | 2.81 | 4.65 | 3.91 | 3.09 | 2.77 |
| Cc1ccc(-n2nc(C(C)(C)C)cc2NC(=O)Nc2ccc(OCCN3CCOCC3)c3ccccc23)cc1 [BIRB 796 (Doramapimod)] | 0.796 | 0.748 | 0.91 | 0.858 | 0.787 | 0.879 | 0.712 | 0.709 | > 10 | > 10000 | > 10 | > 10000 | > 10 | > 10 | > 10 | > 10000 | 3.36 | 3.46 | 3.52 | 3.46 | 3.74 | 4.02 | 3.02 | 2.88 |
| Nc1cc(C(F)(F)F)c(-c2cc(N3CCOCC3)nc(N3CCOCC3)n2)cn1 [BKM120 (NVP-BKM120)] | 0.0728 | 0.00247 | 0.0668 | 0.0499 | 0.0226 | 0.134 | 0.0981 | 0.0858 | 1.67 | 179 | 1.57 | 608 | 1.45 | 1.93 | 0.641 | 887 | 2.23 | 1.56 | 2.57 | 2.31 | 2.65 | 2.89 | 2.2 | 2.31 |
| CC(C)c1cnn2c(NCc3ccccc3)cc(NCCCCCCN)nc12.Cl [BS-181 HCl] | 0.842 | 0.424 | 0.902 | 0.753 | 1.15 | 1.1 | 0.696 | 0.54 | > 10 | 9750 | > 10 | > 10000 | > 10 | > 10 | > 10 | > 10000 | 3.22 | 3.43 | 3.58 | 2.84 | 5.07 | 4.29 | 2.97 | 3.3 |
| O=C(NCCCNc1nc(Nc2cccc(NC(=O)N3CCCC3)c2)ncc1I)c1cccs1 [BX-795] | 0.458 | 0.00247 | 0.149 | 0.17 | 0.0155 | 0.917 | 0.218 | 0.217 | 7.51 | 99.9 | 5.63 | 2670 | 5.04 | > 10 | 3.93 | 2940 | 2.8 | 1.64 | 3.03 | 2.66 | 4.13 | 4.14 | 2.59 | 2.83 |
| O=C(Nc1cccc(Nc2ncc(Br)c(NCCc3cnc[nH]3)n2)c1)N1CCCC1 [BX-912] | 0.266 | 0.0508 | 0.587 | 0.139 | 0.961 | 0.742 | 0.292 | 0.251 | 5.44 | 2040 | > 10 | 2070 | > 10 | > 10 | 5.33 | 4200 | 2.94 | 2.16 | 3.15 | 2.59 | 3.91 | 4.04 | 2.81 | 3.08 |
| Cc1nc(NC(=O)N2CCC[C@H]2C(N)=O)sc1-c1ccnc(C(C)(C)C(F)(F)F)c1 [BYL719] | 0.638 | 0.155 | 0.762 | 0.502 | 0.927 | 0.982 | 0.404 | 0.396 | > 10 | 1650 | > 10 | > 10000 | > 10 | > 10 | 4.8 | 8550 | 2.83 | 1.81 | 3.47 | 3.13 | 3.94 | 4.11 | 2.54 | 2.83 |
| CCN(CCO)CCCOc1ccc2c(Nc3cc(CC(=O)Nc4cccc(F)c4)n[nH]3)ncnc2c1 [Barasertib (AZD1152-HQPA)] | 0.74 | 0.0818 | 0.408 | 0.449 | 0.767 | 1.04 | 0.703 | 0.583 | > 10 | 194 | 4.36 | 2080 | > 10 | > 10 | > 10 | > 10000 | 3.06 | 1.76 | 2.81 | 2.49 | 3.35 | 4.38 | 2.94 | 2.71 |
| COc1cc(Nc2c(C#N)cnc3cc(OCCCN4CCN(C)CC4)c(OC)cc23)c(Cl)cc1Cl [Bosutinib (SKI-606)] | 0.126 | 0.0159 | 0.111 | 0.0478 | 0.00817 | 0.233 | 0.0431 | 0.0885 | 1.14 | 2510 | 1.65 | 849 | > 10 | 5.05 | 1.21 | 429 | 2.34 | 2.94 | 2.68 | 2.38 | 2.35 | 3.08 | 2.61 | 2.16 |
| CC[C@H](Nc1ncnc2[nH]cnc12)c1nc2cccc(F)c2c(=O)n1-c1ccccc1 [CAL-101 (GS-1101)] | 0.777 | 0.613 | 0.786 | 0.633 | 0.926 | 0.979 | 0.701 | 0.64 | > 10 | > 10000 | > 10 | > 10000 | > 10 | > 10 | > 10 | > 10000 | 3.2 | 3.15 | 3.45 | 3.06 | 3.87 | 4.09 | 3.12 | 3.17 |
